Earlier results in US6511968B1, “Combination therapy for treating, preventing, or reducing the risks associated with acute coronary ischemic syndrome and related conditions” (Merck & Co., Inc., priority 1998, dated 2003).
Where a name gives a salt, the structure may show the parent alone. Values belong to the molecule of their own block, whether it stands above or below them. Where a SMILES comes first, the peptide text is derived from it. Bridges are numbered along the chain shown (N, C = ends). [ ]: non-standard residue; d: D form. hArg = N=C(N)NCCCC[C@H](N)C(=O)O; Mpa = O=C(O)CCS

Assays:
GP IIb/IIIa = GP IIb/IIIa (Homo sapiens, UniProt P05106+P08514); conditions: for selectivity for GPIIb/IIIa: administered intravenously
Sequence of GP IIb/IIIa (P08514 32-887 limits assumed): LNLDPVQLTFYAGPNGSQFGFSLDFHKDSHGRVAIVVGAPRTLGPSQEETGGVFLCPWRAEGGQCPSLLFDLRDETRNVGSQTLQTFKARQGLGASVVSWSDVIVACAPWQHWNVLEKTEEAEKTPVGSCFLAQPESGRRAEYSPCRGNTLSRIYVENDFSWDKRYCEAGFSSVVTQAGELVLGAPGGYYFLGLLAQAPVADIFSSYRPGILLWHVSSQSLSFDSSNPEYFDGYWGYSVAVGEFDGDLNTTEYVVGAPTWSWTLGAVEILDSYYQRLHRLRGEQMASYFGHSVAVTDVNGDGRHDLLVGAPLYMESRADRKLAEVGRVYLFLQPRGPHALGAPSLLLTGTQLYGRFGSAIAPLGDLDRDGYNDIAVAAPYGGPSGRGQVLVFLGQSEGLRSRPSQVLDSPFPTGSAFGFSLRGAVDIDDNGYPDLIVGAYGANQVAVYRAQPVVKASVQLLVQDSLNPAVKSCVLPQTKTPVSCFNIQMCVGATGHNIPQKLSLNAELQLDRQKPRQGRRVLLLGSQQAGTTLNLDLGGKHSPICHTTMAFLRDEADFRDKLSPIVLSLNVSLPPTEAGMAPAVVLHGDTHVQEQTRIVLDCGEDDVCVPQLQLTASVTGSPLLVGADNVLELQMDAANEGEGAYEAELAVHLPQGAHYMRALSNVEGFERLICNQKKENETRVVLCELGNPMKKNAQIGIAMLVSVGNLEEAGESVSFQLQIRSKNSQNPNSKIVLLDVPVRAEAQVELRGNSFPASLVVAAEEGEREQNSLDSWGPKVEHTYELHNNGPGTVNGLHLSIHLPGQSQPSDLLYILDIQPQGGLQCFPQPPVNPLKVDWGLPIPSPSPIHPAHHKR
Sequence of GP IIb/IIIa (P08514 891-1039 partner limits assumed): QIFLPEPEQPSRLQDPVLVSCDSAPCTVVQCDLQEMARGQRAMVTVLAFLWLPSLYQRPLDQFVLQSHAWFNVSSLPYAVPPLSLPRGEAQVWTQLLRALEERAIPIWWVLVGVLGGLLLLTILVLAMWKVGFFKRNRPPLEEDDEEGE
Sequence of GP IIb/IIIa (P05106 27-788): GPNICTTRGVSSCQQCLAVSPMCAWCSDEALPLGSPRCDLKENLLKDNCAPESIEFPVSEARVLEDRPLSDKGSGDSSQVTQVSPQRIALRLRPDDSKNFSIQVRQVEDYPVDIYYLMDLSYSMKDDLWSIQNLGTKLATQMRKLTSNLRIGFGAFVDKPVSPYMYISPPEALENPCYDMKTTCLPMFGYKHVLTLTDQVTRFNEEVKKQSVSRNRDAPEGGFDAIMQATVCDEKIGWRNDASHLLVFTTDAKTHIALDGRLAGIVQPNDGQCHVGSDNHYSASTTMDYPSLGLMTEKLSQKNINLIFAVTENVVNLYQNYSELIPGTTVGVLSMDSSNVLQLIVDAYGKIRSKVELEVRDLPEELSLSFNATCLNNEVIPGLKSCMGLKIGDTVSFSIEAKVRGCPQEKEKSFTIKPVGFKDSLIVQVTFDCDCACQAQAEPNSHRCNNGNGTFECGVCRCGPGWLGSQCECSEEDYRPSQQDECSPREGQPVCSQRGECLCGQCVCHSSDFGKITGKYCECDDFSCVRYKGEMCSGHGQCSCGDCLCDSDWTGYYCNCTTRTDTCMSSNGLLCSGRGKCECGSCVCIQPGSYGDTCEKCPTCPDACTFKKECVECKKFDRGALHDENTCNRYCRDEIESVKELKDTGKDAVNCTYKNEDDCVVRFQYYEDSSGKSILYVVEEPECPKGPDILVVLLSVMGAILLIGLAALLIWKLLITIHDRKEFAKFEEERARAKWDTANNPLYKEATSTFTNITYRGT

αvβ3 = αvβ3 (Homo sapiens, UniProt P05106+P06756)
Sequence of αvβ3 (P06756 31-889 limits assumed): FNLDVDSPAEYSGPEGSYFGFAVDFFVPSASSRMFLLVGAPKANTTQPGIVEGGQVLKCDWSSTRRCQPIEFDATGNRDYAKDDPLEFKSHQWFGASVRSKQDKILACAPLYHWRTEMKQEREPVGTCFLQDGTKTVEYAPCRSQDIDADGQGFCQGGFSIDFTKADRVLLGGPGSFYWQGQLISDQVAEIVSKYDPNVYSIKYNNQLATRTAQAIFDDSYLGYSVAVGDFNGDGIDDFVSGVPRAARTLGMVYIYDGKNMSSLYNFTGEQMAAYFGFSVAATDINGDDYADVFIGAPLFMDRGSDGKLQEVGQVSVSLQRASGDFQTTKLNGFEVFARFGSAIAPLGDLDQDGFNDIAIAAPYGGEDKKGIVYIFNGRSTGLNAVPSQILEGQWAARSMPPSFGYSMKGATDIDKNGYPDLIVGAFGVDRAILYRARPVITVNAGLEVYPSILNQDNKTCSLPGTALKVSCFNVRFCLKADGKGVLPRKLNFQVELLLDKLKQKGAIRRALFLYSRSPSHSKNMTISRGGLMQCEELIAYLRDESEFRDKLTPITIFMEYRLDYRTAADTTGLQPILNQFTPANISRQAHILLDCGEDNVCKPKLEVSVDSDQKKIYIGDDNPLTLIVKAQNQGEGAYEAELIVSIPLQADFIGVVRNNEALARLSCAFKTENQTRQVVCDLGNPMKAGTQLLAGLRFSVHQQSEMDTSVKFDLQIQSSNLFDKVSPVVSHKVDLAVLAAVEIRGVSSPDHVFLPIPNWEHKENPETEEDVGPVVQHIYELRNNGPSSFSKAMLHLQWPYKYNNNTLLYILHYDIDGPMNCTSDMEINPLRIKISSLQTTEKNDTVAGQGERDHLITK
Sequence of αvβ3 (P06756 891-1048 partner limits assumed): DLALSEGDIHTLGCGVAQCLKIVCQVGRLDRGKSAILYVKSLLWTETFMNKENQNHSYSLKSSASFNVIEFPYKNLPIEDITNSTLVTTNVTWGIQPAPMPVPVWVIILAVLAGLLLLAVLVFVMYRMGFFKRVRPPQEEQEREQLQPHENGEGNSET
Sequence of αvβ3 (P05106 27-788): as the sequence (P05106 27-788) above

[1] = prodrug
platelet aggregation = conditions: increasing concentrations added to platelet-rich plasma in vitro or incremental doses in vivo

Molecule: N=C(N)NCCCC[C@@H]1NC(=O)CCSSC[C@@H](C(N)=O)NC(=O)[C@@H]2CCCN2C(=O)[C@H](Cc2c[nH]c3ccccc23)NC(=O)[C@H](CC(=O)O)NC(=O)CNC1=O [Integrelin] ([Mpa][hArg]GDWPC-NH2; disulfide 1-7)
- inhibition of ligand binding to GP IIb/IIIa / receptor blockade (GP IIb/IIIa): inhibits ligand binding to GP IIb/IIIa
- effect on ligand binding to αvβ3 / receptor blockade (αvβ3): very little effect

Molecule: CCCCS(=O)(=O)N[C@@H](Cc1ccc(OCCCCC2CCNCC2)cc1)C(=O)O [MK-383, 2-S-(n-Butylsulfonylamino)-3[4-piperidin-4-yl)butyloxyphenyl]propionic acid hydrochloride]
- selectivity for GPIIb/IIIa (GP IIb/IIIa): selective for GPIIb/IIIa

B1: c7E3 Fab: c7E3 Fab form of the 7E3 antibody (antibody, chains of the INN, looked up, V domains shown)
VH: EVQLQQSGTVLARPGASVKMSCEASGYTFTNYWMHWVKQRPGQGLEWIGAIYPGNSDTSYIQKFKGKAKLTAVTSTTSVYMELSSLTNEDSAVYYCTLYDGYYVFAYWGQGTLVTVSA
VL: EIVLTQSPVTLSVTPGDSVSLSCRASRDISNNLHWFQQTSHESPRLLIKYASQSMSGIPSRFSGSGSGTDFTLSINSVETEDFGMYFCQQTNSWPYTFGGGTKLEIK
modifications: Fab
notes: c7E3 Fab form of the 7E3 antibody
- platelet aggregation (platelet aggregation): profoundly inhibited

Other lines, results leading:

- selectivity for GPIIb/IIIa (GP IIb/IIIa): selective for GPIIb/IIIa
Molecule: N=C(N)c1ccc(C(=O)N[C@@H](Cc2ccc(O)cc2)C(=O)N2CCC(OCC(=O)O)CC2)cc1 [Ro 44-9883]

- oral bioavailability [1]: high oral bioavailability
Molecule: C#C[C@H](CC(=O)OCC)NC(=O)CCC(=O)Nc1ccc(C(=N)N)cc1 [SC54684, ethyl 3-[[4-[[4-(aminoiminomethyl)phenyl]amino]-1,4-dioxobutyl]amino]-4-pentynoate]
